Test [1] concerns P. aeruginosa 854. Kind of test: microbe, parasite or virus in culture. It counts as cell-based, Pseudomonas aeruginosa. The protocol:
(§1) Activity of SET-M33 and antibiotics was evaluated on six well characterized clinical strains. The strains were selected according to their resistance phenotypes and genotypes.
(§2) MICs were determined using a standard broth microdilution assay according to the guidelines of the Clinical and Laboratory Standards Institute.

Test [2] deals with A. baumannii VA566/00. Kind of test: MIC, standard broth microdilution. It counts as cell-based. The note with it: Acinetobacter baumannii. The protocol: as §1, §2
For orientation: Dilution methods test growth across graded concentrations, often in twofold steps.

The subject of test [3] is P. aeruginosa AV65. Kind of test: MIC, standard broth microdilution. It counts as cell-based. To be noted: Pseudomonas aeruginosa. The protocol:
as §1, §2

Test [4] concerns A. baumannii N50. The test is described as follows: microbe, parasite or virus in culture. It counts as cell-based. To be noted: Acinetobacter baumannii. The protocol:
as §1, §2

In test [5] the test system is K. pneumoniae 044-R. The test is described as follows: microbe, parasite or virus in culture. The class given is cell-based. The note with it: Klebsiella pneumoniae; agent alone; K. pneumoniae 044-R (XDR, KPC, colR). The protocol: as §1, §2
Test [6] relates to K. pneumoniae KKBO-4. The test is described as follows: microbe, parasite or virus in culture. The class given is cell-based. The note with it: Klebsiella pneumoniae, KKBO4. The protocol:
as §1, §2

For test [7], the system named is K. pneumoniae 044-R. The test is described as follows: Antimicrobial activity in combination, checkerboard method. It counts as cell-based, Klebsiella pneumoniae. To be noted: for MIC in combination, ATB: antimicrobial agent in combination with SET-M33. The procedure: as §1
(§3) Antimicrobial activity in combination was evaluated, in duplicate for each of the six strains, with the checkerboard method using cation-adjusted Mueller-Hinton broth (MHB) in 96-well microtiter plates (Sarstedt, Inc., Newton, N.C.). Assays were performed using a final bacterial inoculum of 5×10^4 CFU/well in a final volume of 100 μl. Results were recorded after 20 h of incubation at 35° C. The total fractional inhibitory concentration (ΣFIC) for each antibiotic combination was calculated according to EUCAST definitive document E.Def 1.2 [16] as follows: ΣFIC equals FIC of agent A plus FIC of agent B, where the FIC of agent A or B is the MIC of agent A or B in the presence of the other divided by the MIC of agent A or B alone. Results were interpreted according to the following definition: a ΣFIC of ≤0.5 indicated synergism, a ΣFIC of >0.5 to 1 indicated additivity, a ΣFIC of >1 to <2 indicated indifference, and a ΣFIC of ≥2 antagonism.

In test [8] the test system is K. pneumoniae KKBO-4. The description is as above. It counts as cell-based, Klebsiella pneumoniae. To be noted: for MIC in combination, ATB: antimicrobial agent in combination with SET-M33. The procedure:
as §1, §3

For test [9], the system named is P. aeruginosa 854. The test is described as above. It counts as cell-based, Pseudomonas aeruginosa. The note with it: for MIC in combination, ATB: antimicrobial agent in combination with SET-M33. The protocol:
as §1, §3

In test [10] the test system is P. aeruginosa AV65. The description is as above. It counts as cell-based, Pseudomonas aeruginosa. To be noted: for MIC in combination, ATB: antimicrobial agent in combination with SET-M33. The procedure:
as §1, §3

In test [11] the test system is A. baumannii N50. Described as above. The class given is cell-based, Acinetobacter baumannii. To be noted: for MIC in combination, ATB: antimicrobial agent in combination with SET-M33. The procedure: as §1, §3
Test [12] concerns A. baumannii VA566/00. The test is described as above. It counts as cell-based, Acinetobacter baumannii. The note with it: for MIC in combination, ATB: antimicrobial agent in combination with SET-M33. The protocol: as §1, §3
Test [13] concerns 6 MDR/XDR Gram-negative strains. It counts as cell-based. The protocol:
as §1, §2

The test system is the same in test [14]. Kind of test: Checkerboard combination testing, summary over the six strains. The class given is cell-based. The procedure: as §1, §3
The mark [15] stands for this setting: agent alone, K. pneumoniae KKBO-4 (XDR, KPC, colR), read-out: MIC.
Setting [16] is: Pseudomonas aeruginosa, agent alone, P. aeruginosa 854 (XDR, VIM-1), read-out: MIC.
[17] abbreviates: agent alone, A. baumannii N50 (MDR, OXA-24, colR), read-out: MIC.
The mark [18] stands for this setting: SET-M33 in combination with aztreonam.
[19] abbreviates: SET-M33 in combination with meropenem.
Setting [20] is: SET-M33 in combination with rifampin.
Where [21] appears, read: SET-M33 in combination with tobramycin.

In brackets after ≈: the same amount, converted by molar mass. Where two headings read alike, the source gives them in different places.

In the case of `C[C@@H](O)[C@H]1C(=O)N2C(C(=O)O)=C(S[C@@H]3CN[C@H](C(=O)N(C)C)C3)[C@H](C)[C@H]12` [meropenem], the MIC in the test on P. aeruginosa 854 [1] (Pseudomonas aeruginosa, 854) came out at 512 µg/mL (≈ 1340 µM); with A. baumannii VA566/00 [2] (VA566/00), 512 µg/mL (≈ 1340 µM); with P. aeruginosa AV65 [3] (AV65), 256 µg/mL (≈ 668 µM); in the test with A. baumannii N50 [4] (N50), 256 µg/mL (≈ 668 µM); with K. pneumoniae 044-R [5], 64 µg/mL (≈ 167 µM); with K. pneumoniae KKBO-4 [6] (setting [15]), 64 µg/mL (≈ 167 µM). The “MIC in combination, ATB” value in the test with K. pneumoniae 044-R [7] is 32 µg/mL; in the test on K. pneumoniae KKBO-4 [8], 32 µg/mL; with P. aeruginosa 854 [9] it was 16 µg/mL; with P. aeruginosa AV65 [10] it was 64 µg/mL; with A. baumannii N50 [11] it was 64 µg/mL; in the test on A. baumannii VA566/00 [12], 4 µg/mL.
For the compound `NC[C@H]1O[C@H](O[C@H]2[C@H](O)[C@@H](O[C@H]3O[C@H](CO)[C@@H](O)[C@H](N)[C@H]3O)[C@H](N)C[C@@H]2N)[C@H](N)C[C@@H]1O` [tobramycin], the MIC in the test on P. aeruginosa 854 [1] (setting [16]) worked out at 256 µg/mL (≈ 548 µM); in the test on A. baumannii VA566/00 [2] (agent alone, A. baumannii VA566/00 (MDR, OXA-24), read-out: MIC) it was 16 µg/mL (≈ 34.2 µM); in the test on P. aeruginosa AV65 [3] (AV65), 128 µg/mL (≈ 274 µM); with A. baumannii N50 [4] (setting [17]), 8 µg/mL (≈ 17.1 µM); in the test with K. pneumoniae 044-R [5] it was 32 µg/mL (≈ 68.4 µM); with K. pneumoniae KKBO-4 [6] (setting [15]), 32 µg/mL (≈ 68.4 µM). Besides, the “MIC in combination, ATB” value with K. pneumoniae 044-R [7] was determined as 16 µg/mL; with K. pneumoniae KKBO-4 [8], 16 µg/mL; in the test on P. aeruginosa 854 [9] it was 256 µg/mL; in the test with P. aeruginosa AV65 [10], 128 µg/mL; in the test on A. baumannii N50 [11], 0.5 µg/mL; in the test on A. baumannii VA566/00 [12], 4 µg/mL.
Compound `CC[C@H](C)[C@H](NC(=O)[C@H](CCCCN)NC(=O)[C@@H](N)CCCCN)C(=O)N[C@@H](CCCNC(=N)N)C(=O)N[C@H](C(=O)N[C@@H](CCCNC(=N)N)C(=O)N[C@@H](CC(C)C)C(=O)N[C@@H](CO)C(=O)N[C@@H](C)C(=O)O)C(C)C` (stereo in doubt) [SET-M33] gave an MIC with P. aeruginosa 854 [1] (854) of 16 µg/mL (≈ 14.9 µM). For the same compound, the “MIC in combination, SET-M33” value with K. pneumoniae 044-R [7] (setting [18]) is 8 µg/mL; with K. pneumoniae 044-R [7] (setting [19]) it was 8 µg/mL; in the test on K. pneumoniae 044-R [7] (setting [20]) it was 4 µg/mL; in the test on K. pneumoniae 044-R [7] (setting [21]), 16 µg/mL; in the test with K. pneumoniae KKBO-4 [8] (setting [18]), 8 µg/mL; with K. pneumoniae KKBO-4 [8] (setting [19]), 8 µg/mL. For the same compound, the “MIC in combination, SET-M33” value in the test with K. pneumoniae KKBO-4 [8] (setting [20]) was 4 µg/mL; with K. pneumoniae KKBO-4 [8] (setting [21]), 16 µg/mL; in the test on P. aeruginosa 854 [9] (setting [18]) it was 8 µg/mL; in the test with P. aeruginosa 854 [9] (setting [19]), 8 µg/mL; in the test on P. aeruginosa 854 [9] (setting [20]) it was 8 µg/mL; in the test on P. aeruginosa 854 [9] (setting [21]), 8 µg/mL. For the same compound, the “MIC in combination, SET-M33” value in the test on P. aeruginosa AV65 [10] (setting [18]) was 8 µg/mL; with P. aeruginosa AV65 [10] (setting [19]), 4 µg/mL; in the test with P. aeruginosa AV65 [10] (setting [20]), 8 µg/mL; in the test on P. aeruginosa AV65 [10] (setting [21]), 2 µg/mL; in the test on A. baumannii N50 [11] (setting [18]) it was 4 µg/mL; with A. baumannii N50 [11] (setting [19]), 4 µg/mL. For the same compound, the “MIC in combination, SET-M33” value with A. baumannii N50 [11] (setting [20]) was determined as 8 µg/mL; with A. baumannii N50 [11] (setting [21]), 8 µg/mL; with A. baumannii VA566/00 [12] (setting [18]) it was 4 µg/mL; with A. baumannii VA566/00 [12] (setting [19]), 4 µg/mL; in the test on A. baumannii VA566/00 [12] (setting [20]) it was 4 µg/mL; with A. baumannii VA566/00 [12] (setting [21]), 8 µg/mL. The compound further registered an MIC values in test [13] of 4 to 32 µg/mL. For the same compound, the “interaction in combination (ΣFIC interpretation)” value in test [14] (SET-M33 in combination with aztreonam, colistin-resistant strains of K. pneumoniae) is listed as “synergistic activity”; in test [14] (SET-M33 in combination with ciprofloxacin, data not shown), “Additivity”; in test [14] (SET-M33 in combination with rifampin, colistin-resistant strains of K. pneumoniae) it was “synergistic activity”; in [14] (SET-M33 in combination with tobramycin, one of the A. baumannii strains) it was “Synergy”. Moreover, the “effect of combination on SET-M33 MIC values” is “moderately affected” in [14] (when a synergistic effect was present, e.g. with rifampin, aztreonam and tobramycin); “not affected” in test [14] (when the effect was additive or indifferent).
As to `C[C@H]1[C@H](NC(=O)/C(=N\OC(C)(C)C(=O)O)c2csc(N)n2)C(=O)N1S(=O)(=O)O` [aztreonam], the MIC against P. aeruginosa 854 [1] (Pseudomonas aeruginosa, 854) was determined as 128 µg/mL (≈ 294 µM); in the test with A. baumannii VA566/00 [2] (VA566/00), 512 µg/mL (≈ 1180 µM); in the test on P. aeruginosa AV65 [3] (agent alone, P. aeruginosa AV65 (XDR, IMP-13), read-out: MIC) it was 32 µg/mL (≈ 73.5 µM); with A. baumannii N50 [4] (N50), 128 µg/mL (≈ 294 µM). Moreover, the “MIC in combination, ATB” value in the test on P. aeruginosa 854 [9] is 64 µg/mL; in the test with P. aeruginosa AV65 [10] it was 1 µg/mL; in the test with A. baumannii N50 [11], 32 µg/mL; in the test on A. baumannii VA566/00 [12], 16 µg/mL.
With `CO[C@H]1/C=C/O[C@@]2(C)Oc3c(C)c(O)c4c(O)c(c(/C=N/N5CCN(C)CC5)c(O)c4c3C2=O)NC(=O)/C(C)=C\C=C\[C@H](C)[C@H](O)[C@@H](C)[C@@H](O)[C@@H](C)[C@H](OC(C)=O)[C@@H]1C` [rifampin], the MIC in the test with P. aeruginosa 854 [1] (setting [16]) was 32 µg/mL (≈ 38.9 µM); against A. baumannii VA566/00 [2] (VA566/00) it was 256 µg/mL (≈ 311 µM); in the test on P. aeruginosa AV65 [3] (AV65), 128 µg/mL (≈ 156 µM); with A. baumannii N50 [4] (setting [17]) it was 64 µg/mL (≈ 77.8 µM); against K. pneumoniae 044-R [5], 64 µg/mL (≈ 77.8 µM); in the test on K. pneumoniae KKBO-4 [6], 128 µg/mL (≈ 156 µM). The “MIC in combination, ATB” value in the test with K. pneumoniae 044-R [7] stood at 16 µg/mL; with K. pneumoniae KKBO-4 [8], 32 µg/mL; with P. aeruginosa 854 [9], 8 µg/mL; in the test on P. aeruginosa AV65 [10] it was 64 µg/mL; with A. baumannii N50 [11] it was 4 µg/mL; in the test with A. baumannii VA566/00 [12], 2 µg/mL.
